Data from US10085976B2, “Pharmaceutical composition for preventing or treating neurodegenerative diseases” (AJOU UNIVERSITY INDUSTRY-ACADEMIC COOPERATION FOUNDATION, priority 2015, dated 2018).

What was measured:
[1] = tested on: differentiated SH-SY5Y cells; test: LDH release cytotoxicity assay, aggregated α-syn on differentiated SH-SY5Y dopaminergic neurons; format: cell-based, human; conditions: 1 μM aggregated α-syn and 50 μM inhibitor for 2 days, FIG. 12B
From the text: FIG. 12B is a graph showing the effect of the SHP-1/2 inhibitor, NSC87877 on cytotoxicity of aggregated α-syn in undifferentiated SH-SY5Y cells and differentiated SH-SY5Y cells.
FIGS. 12C and 12D are images and graphs showing the effect of the SHP-1/2 inhibitor, NSC87877 on cytotoxicity of aggregated α-syn in differentiated SH-SY5Y cells. ** P<0.01 represents a comparison with the PBS-treated SHSY5Y.
To differentiate SH-SY5Y cells to dopaminergic neurons, SH-SY5Y cells seeded in a culture plate were cultured in a medium containing 50 μM of retinoic acid for 5 days. In this regard, the medium was replaced by a fresh medium containing 50 μM of retinoic acid at 3 days, 4 days, and 5 days after initiation of the culture. Further, in order to assess cytotoxicity, the differentiated SH-SY5Y dopaminergic neurons and undifferentiated SH-SY5Y dopaminergic neurons were seeded in 12-well, respectively, followed by incubation for one day. Thereafter, they were cultured in a medium containing 1 μM of aggregated α-syn and 50 μM of the SHP-1/-2 inhibitor NSC87877 for 2 days, and LDH (lactate dehydrogenase) release assay was performed according to the manufacturer's instructions.

BV-2 cells [2] = test: Phagocytosis assay with fluorescent microspheres, aggregated α-syn-treated BV-2 cells; format: cell-based, murine; conditions: 20 μM pre-incubation 30 minutes, then 1 NM of aggregated α-syn and fluorescent microspheres for 12 hours, FIG. 4D
Description: (§1) FIGS. 4D and 4E are graphs showing phagocytic activity after pre-incubating BV-2 cell and rat primary microglia with 20 μM of NSC87877 as an SHP-1 inhibitor for 30 minutes, and then incubating them with 1 NM of aggregated α-syn and fluorescent microspheres for 12 hours. ** P<0.01 represents a comparison with the control group.
(§2) Further, BV-2 cells, a murine microglial cell line, were grown in Dulbecco's modified Eagle's Medium (DMEM) supplemented with 5% fetal bovine serum (FBS) and maintained at 37° C. in a humidified atmosphere of 5% CO2. Rat primary microglia from the cerebral cortices of 1-day-old Sprague-Dawley rats were cultured as described in the known literature (Kim, K. S., et al., 2012. J Biol Chem. 287, 24862-72.).
(§3) Briefly, BV-2 cells (5×10^4 cells per well) were cultured in a 12 well plate overnight. The medium was then removed and replaced with fresh DMEM containing 5% FBS. […] The five random fields of cells (>100 cells) were counted under a confocal microscope (Zeiss, Germany). Percentage of phagocytic cells was analyzed by a known method (Park, J. Y., et al., 2008. Glia. 56, 1215-23.). For cell viability assay, BV-2 cells were treated with 1 μM of aggregated α-syn for 12 hours, and then LDH release was measured using an LDH-cytotoxicity assay kit (Biovision, CA) according to the manufacturer's instructions. […]

BV-2 cells [3] = test: α-syn propagation, two-chamber co-culture with α-syn-overexpressed SH-SY5Y cells, immunostaining (BV-2); format: cell-based, murine; conditions: co-culture 12 hours, vs PBS-treated group, FIGS. 10B, 10E
Description: FIGS. 10B and 10E are images and graphs showing that α-syn propagation was reduced by treatment of SHP-1/2 inhibitor, NSC87877. *** P<0.001 represents a comparison with the PBS-treated group.
(§4) The prepared SHP-1 knockdown SH-SY5Y dopaminergic neuronal cell lines (SHP-1 KD1 and SHP-1 KD2) were co-cultured with α-syn-overexpressed SH-SY5Y dopaminergic neuronal cell line using the two-chamber system for 12 hours. The co-culture is briefly summarized as follows. SH-SY5Y or BV2 or OLN93 cell was seeded at a density of 4×10^4 cell per well on a 12-well cover glass, and α-syn-overexpressed SH-SY5Y cell was seeded at a density of 4×10^4 cell per well on a 12-well transwell. Each of the cells was incubated for one day, and then the transwell (α-syn-overexpressed SH-SY5Y cell) was transferred to the 12-well cover glass (SH-SY5Y cell), followed by co-culture for 12 hours, and then immunostaining.

rat primary microglia = test: Phagocytosis assay with fluorescent microspheres, aggregated α-syn-treated rat primary microglia; format: cell-based; conditions: 20 μM pre-incubation 30 minutes, then 1 NM of aggregated α-syn and fluorescent microspheres for 12 hours, FIG. 4E
Description: as §1, §2, §3

SH-SY5Y cells = test: α-syn propagation, two-chamber co-culture with α-syn-overexpressed SH-SY5Y cells, immunostaining (SH-SY5Y); format: cell-based, human; conditions: co-culture 12 hours, vs PBS-treated group, FIGS. 10I, 10K
Description: FIGS. 10I and 10K are images and graphs showing that propagation of aggregated α-syn is reduced in SH-SY5Y cell line treated with the SHP-1,2 inhibitor NSC87877, similar to the SHP-1 knockdown cells. *** P<0.001 represents a comparison with the PBS-treated group.
as §4

rat microglia = test: α-syn propagation, two-chamber co-culture with α-syn-overexpressed SH-SY5Y cells, immunostaining (primary microglia); format: cell-based; conditions: vs PBS-treated group, FIGS. 10C, 10F
Description: FIGS. 10C and 10F are images and graphs showing that α-syn propagation was reduced in rat microglia by treatment of the SHP-1/2 inhibitor, NSC87877. Scale bar indicates 20 μm, and *** P<0.001 represents a comparison with the PBS-treated group.
as §4

[4] = tested on: A53Tα-syn-overexpressed SHSY5Y cells; test: Intracellular aggregation of eGFP-tagged A53T α-syn in co-culture, confocal microscopy; format: cell-based, human; conditions: co-culture with α-syn-overexpressed SHSY5Y, 5 days after treatment; FIG. 14C
Description: FIG. 14C is an image of confocal microscopy after differentiation with retinoic acid for 5 days in the co-culture of A53Tα-syn-overexpressed SHSY5Y and α-syn-overexpressed SHSY5Y under treatment of the SHP-1/2 inhibitor, NSC87877. Scale bar indicates 20 μm.
First, eGPF-tagged A53Tα-syn-overexpressed SHSY5Y cell line was prepared using lentivirus, and the prepared eGPP-tagged A53Tα-syn-overexpressed SHSY5Y cell line and α-syn-overexpressed SHSY5Y cell line were mixed, followed by co-culture. […] At 5 days after the co-culture, intracellular distribution of eGFP-tagged A53Tα-syn was observed under confocal microscopy.
In this regard, the SHP-1/2 inhibitor, NSC87877 was treated and A53Tα-syn-overexpressed SHSY5Y cell line and α-syn-overexpressed SHSY5Y cell line were mixed, followed by co-culture. At 5 days after NSC 87877 treatment and co-culture, intracellular distribution of eGFP-tagged A53Tα-syn was observed under confocal microscopy.

OLN 93 cell line = test: α-syn propagation, two-chamber co-culture with α-syn-overexpressed SH-SY5Y cells, immunostaining (OLN 93); format: cell-based; conditions: OLN 93 cells; co-culture 12 hours; vs PBS-treated group; FIGS. 10N, 10P
Description: FIGS. 10N and 10P are images and graphs showing that propagation of α-syn is reduced in OLN 93 cell line treated with the SHP-1,2 inhibitor NSC87877. *** P<0.001 represents a comparison with the PBS-treated group.
as §4

O=S(=O)(O)c1ccc2cc(N=Nc3cc(S(=O)(=O)O)c4cccnc4c3O)ccc2c1 [NSC87877]
Neurotoxicity (cytotoxicity, LDH release) by aggregated α-syn [1]: neurotoxicity by aggregated α-syn was reduced
Effect on inhibition of microglial phagocytosis by aggregated α-syn (BV-2 cells [2]): efficiently rescued the inhibitory effect of aggregated α-syn on microglial phagocytosis
α-syn propagation (BV-2 cells [3]): α-syn propagation was also reduced
Effect on inhibition of microglial phagocytosis by aggregated α-syn (rat primary microglia): efficiently rescued the inhibitory effect of aggregated α-syn on microglial phagocytosis
α-syn propagation (SH-SY5Y cells): α-syn propagation was also reduced
α-syn propagation (rat microglia): reduced α-syn propagation was observed
Intracellular aggregation of eGFP-tagged A53Tα-syn (eGFP distribution) [4]: no aggregation in the cells
α-syn propagation (OLN 93 cell line): α-syn propagation was also reduced
